In brackets after ≈: the same amount, converted by molar mass.
How the values were obtained:
Experiment in all cases: minimal inhibitory concentration, two-fold agar dilution
Assay type in all cases: cell-based
[1] = system: Proteus mirabilis ATCC 25933; settings: ATCC25933, Muller-Hinton agar, 37°C, 20 hours, read-out: MIC values against the standard strains
Method: (§1) These MIC values were taken by employing a two-fold dilution method: that is, two-fold serial dilutions of each of the test compounds were made and dispersed in a Muller-Hinton agar medium; 2µl of the standard test strain which had the 10⁷ CFU(Colony Forming Unit) per ml was inoculated on the medium; and these were incubated at 37°C for 20 hours.

[2] = system: Enterobacter cloacae ATCC 27508; settings: ATCC27508, Muller-Hinton agar, 37°C, 20 hours, read-out: MIC values against the standard strains
Method: as §1

[3] = system: Shigella flexneri ATCC 11836; settings: ATCC11836, Muller-Hinton agar, 37°C, 20 hours, read-out: MIC values against the standard strains
Method: as §1

[4] = system: Micrococcus luteus ATCC 9341; settings: ATCC9341, Muller-Hinton agar, 37°C, 20 hours, read-out: MIC values against the standard strains
Method: as §1

[5] = system: Pseudomonas aeruginosa ATCC 25619; settings: ATCC25619, Muller-Hinton agar, 37°C, 20 hours, read-out: MIC values against the standard strains
Method: as §1

[6] = system: Staphylococcus aureus ATCC 10537; settings: ATCC10537, Muller-Hinton agar, 37°C, 20 hours, read-out: MIC values against the standard strains
Method: as §1

[7] = system: Bacillus megaterium ATCC 9885; settings: Priestia megaterium, ATCC9885; Muller-Hinton agar; 37°C; 20 hours; read-out: MIC values against the standard strains
Method: as §1

[8] = system: Acinetobacter calcoaceticus ATCC 15473; settings: ATCC15473, Muller-Hinton agar, 37°C, 20 hours, read-out: MIC values against the standard strains
Method: as §1

[9] = system: Klebsiella pneumoniae ATCC 10031; settings: ATCC10031, Muller-Hinton agar, 37°C, 20 hours, read-out: MIC values against the standard strains
Method: as §1

[10] = system: Salmonella typhimurium ATCC 14028; settings: Salmonella enterica; Muller-Hinton agar; 37°C; 20 hours; read-out: MIC values against the standard strains
Method: as §1

[11] = system: Serratia marcescens ATCC 27117; settings: ATCC27117, Muller-Hinton agar, 37°C, 20 hours, read-out: MIC values against the standard strains
Method: as §1

[12] = system: Bacillus cereus ATCC 11778; settings: ATCC11778, Muller-Hinton agar, 37°C, 20 hours, read-out: MIC values against the standard strains
Method: as §1

[13] = system: Staphylococcus epidermidis ATCC 12228; settings: ATCC12228, Muller-Hinton agar, 37°C, 20 hours, read-out: MIC values against the standard strains
Method: as §1

[14] = system: Morganella morganii ATCC 8076h; settings: ATCC8076H, Muller-Hinton agar, 37°C, 20 hours, read-out: MIC values against the standard strains
Method: as §1

[15] = system: Proteus vulgaris ATCC 6059; settings: ATCC6059, Muller-Hinton agar, 37°C, 20 hours, read-out: MIC values against the standard strains
Method: as §1

[16] = system: Escherichia coli ATCC 25922; settings: ATCC25922, Muller-Hinton agar, 37°C, 20 hours, read-out: MIC values against the standard strains
Method: as §1

[17] = system: Shigella sonnei ATCC 11060; settings: ATCC11060, Muller-Hinton agar, 37°C, 20 hours, read-out: MIC values against the standard strains
Method: as §1

[18] = system: Staphylococcus aureus ATCC 6538p; settings: ATCC6538P, Muller-Hinton agar, 37°C, 20 hours, read-out: MIC values against the standard strains
Method: as §1

[19] = system: Providencia rettgeri ATCC 9250; settings: ATCC9250, Muller-Hinton agar, 37°C, 20 hours, read-out: MIC values against the standard strains
Method: as §1

[20] = system: Pseudomonas aeruginosa ATCC 10145; settings: ATCC10145, Muller-Hinton agar, 37°C, 20 hours, read-out: MIC values against the standard strains
Method: as §1

[21] = system: Pseudomonas aeruginosa ATCC 27853; settings: ATCC27853, Muller-Hinton agar, 37°C, 20 hours, read-out: MIC values against the standard strains
Method: as §1

[22] = system: Enterobacter aerogenes ATCC 29751; settings: Klebsiella aerogenes, ATCC29751; Muller-Hinton agar; 37°C; 20 hours; read-out: MIC values against the standard strains
Method: as §1

[23] = system: Escherichia coli ATCC 10536; settings: ATCC10536, Muller-Hinton agar, 37°C, 20 hours, read-out: MIC values against the standard strains
Method: as §1

[24] = system: Streptococcus faecalis ATCC 29212; settings: Enterococcus faecalis, ATCC29212; Muller-Hinton agar; 37°C; 20 hours; read-out: MIC values against the standard strains
Method: as §1

[25] = system: Citrobacter freundii ATCC 8090; settings: ATCC8090, Muller-Hinton agar, 37°C, 20 hours, read-out: MIC values against the standard strains
Method: as §1

| Structure (SMILES) | MIC [1] [µg/mL] | MIC [2] [µg/mL] | MIC [3] [µg/mL] | MIC [4] [µg/mL] | MIC [5] [µg/mL] | MIC [6] [µg/mL] | MIC [7] [µg/mL] | MIC [8] [µg/mL] | MIC [9] [µg/mL] | MIC [10] [µg/mL] | MIC [11] [µg/mL] | MIC [12] [µg/mL] | MIC [13] [µg/mL] | MIC [14] [µg/mL] | MIC [15] [µg/mL] | MIC [16] [µg/mL] | MIC [17] [µg/mL] | MIC [18] [µg/mL] | MIC [19] [µg/mL] | MIC [20] [µg/mL] | other results |
| --- | --- | --- | --- | --- | --- | --- | --- | --- | --- | --- | --- | --- | --- | --- | --- | --- | --- | --- | --- | --- | --- |
| CN(C)c1cc(N)nc(SCC2=C(C(=O)[O-])N3C(=O)[C@@H](NC(=O)/C(=N\OC(C)(C)C(=O)O)c4csc(N)n4)[C@H]3SC2)[n+]1C [Example 50, 7-[(Z)-2-(2-aminothiazol-4-yl)-2-(carboxyprop-2-oxyimino)acetamido]-3-{4-amino-1-methyl-6-(N,N-dimethyl)aminopyrimidinium-2-yl}thiomethyl-3-cephem-4-carboxylate] | 0.031 (≈ 0.0476 µM) | ≤ 0.008 | 0.031 (≈ 0.0476 µM) | 0.25 (≈ 0.384 µM) | 1 (≈ 1.53 µM) | 4 (≈ 6.14 µM) | 0.25 (≈ 0.384 µM) | 4 (≈ 6.14 µM) | 0.063 (≈ 0.0967 µM) | 0.13 (≈ 0.199 µM) | 0.13 (≈ 0.199 µM) | 128 (≈ 196 µM) | 2 (≈ 3.07 µM) | ≤ 0.008 | 0.031 (≈ 0.0476 µM) | 0.063 (≈ 0.0967 µM) | 0.063 (≈ 0.0967 µM) | 8 (≈ 12.3 µM) | ≤ 0.008 | 2 (≈ 3.07 µM) | MIC [21]: 1 µg/mL (≈ 1.53 µM); MIC [22]: 0.5 µg/mL (≈ 0.767 µM); MIC [23]: 0.063 µg/mL (≈ 0.0967 µM); MIC [24]: > 128 µg/mL; MIC [25]: 0.063 µg/mL (≈ 0.0967 µM) |
| C[n+]1c(SCC2=C(C(=O)[O-])N3C(=O)[C@@H](NC(=O)/C(=N\OC(C)(C)C(=O)O)c4csc(N)n4)[C@H]3SC2)nc(N)c2ccoc21 [Example 32, 7-[(Z)-2-(2-aminothiazol-4-yl)-2-(carboxyprop-2-oxyimino)acetamido]-3-(4-amino-1-methylfuro[5,6,e]pyrimidinium-2-yl-)thiomethyl-3-cephem-4-carboxylate] | 0.13 (≈ 0.2 µM) | 0.016 (≈ 0.0247 µM) | 0.031 (≈ 0.0478 µM) | 0.25 (≈ 0.385 µM) | 1 (≈ 1.54 µM) | 2 (≈ 3.08 µM) | 0.13 (≈ 0.2 µM) | 8 (≈ 12.3 µM) | 0.016 (≈ 0.0247 µM) | 0.25 (≈ 0.385 µM) | 0.25 (≈ 0.385 µM) | 128 (≈ 197 µM) | 2 (≈ 3.08 µM) | ≤ 0.008 | 0.13 (≈ 0.2 µM) | 0.063 (≈ 0.0971 µM) | 0.13 (≈ 0.2 µM) | 4 (≈ 6.17 µM) | ≤ 0.008 | 4 (≈ 6.17 µM) | MIC [21]: 2 µg/mL (≈ 3.08 µM); MIC [22]: 2 µg/mL (≈ 3.08 µM); MIC [23]: 0.063 µg/mL (≈ 0.0971 µM); MIC [24]: > 128 µg/mL; MIC [25]: 0.13 µg/mL (≈ 0.2 µM) |
| Cc1c[n+](N)c(SCC2=C(C(=O)[O-])N3C(=O)[C@@H](NC(=O)/C(=N\OC(C)(C)C(=O)O)c4csc(N)n4)[C@H]3SC2)nc1N [Example 57] | 0.031 (≈ 0.0497 µM) | ≤ 0.008 | 0.063 (≈ 0.101 µM) | 0.25 (≈ 0.401 µM) | 1 (≈ 1.6 µM) | 2 (≈ 3.21 µM) | 0.25 (≈ 0.401 µM) | 16 (≈ 25.7 µM) | 0.063 (≈ 0.101 µM) | 0.13 (≈ 0.208 µM) | 0.13 (≈ 0.208 µM) | 128 (≈ 205 µM) | 2 (≈ 3.21 µM) | ≤ 0.008 | 0.031 (≈ 0.0497 µM) | 0.063 (≈ 0.101 µM) | 0.063 (≈ 0.101 µM) | 8 (≈ 12.8 µM) | ≤ 0.008 | 2 (≈ 3.21 µM) | MIC [21]: 2 µg/mL (≈ 3.21 µM); MIC [22]: 0.5 µg/mL (≈ 0.802 µM); MIC [23]: 0.063 µg/mL (≈ 0.101 µM); MIC [24]: > 128 µg/mL; MIC [25]: 0.031 µg/mL (≈ 0.0497 µM) |
| CCO/N=C(\C(=O)N[C@@H]1C(=O)N2C(C(=O)[O-])=C(CSc3nc(N)cc(OCC(=O)O)[n+]3C)CS[C@H]12)c1csc(N)n1 [Example 19, 7-[(Z)-2-(2-aminothiazol-4-yl)-2-(ethoxyimino)acetamido]-3-(4-amino-6-carboxymethoxy-1-methylpyrimidinium-2-yl)thiomethyl-3-cephem-4-carboxylate] | 0.063 (≈ 0.101 µM) | ≤ 0.008 | 0.031 (≈ 0.0496 µM) | 0.13 (≈ 0.208 µM) | 8 (≈ 12.8 µM) | 2 (≈ 3.2 µM) | 0.25 (≈ 0.4 µM) | 16 (≈ 25.6 µM) | 0.031 (≈ 0.0496 µM) | 0.25 (≈ 0.4 µM) | 0.25 (≈ 0.4 µM) | 128 (≈ 205 µM) | 2 (≈ 3.2 µM) | ≤ 0.008 | 0.063 (≈ 0.101 µM) | 0.063 (≈ 0.101 µM) | 0.063 (≈ 0.101 µM) | 4 (≈ 6.4 µM) | ≤ 0.008 | 32 (≈ 51.2 µM) | MIC [21]: 16 µg/mL (≈ 25.6 µM); MIC [22]: 1 µg/mL (≈ 1.6 µM); MIC [23]: 0.063 µg/mL (≈ 0.101 µM); MIC [24]: 64 µg/mL (≈ 102 µM); MIC [25]: 0.063 µg/mL (≈ 0.101 µM) |
| CCO/N=C(\C(=O)N[C@@H]1C(=O)N2C(C(=O)[O-])=C(CSc3nc(N)c4ccoc4[n+]3C)CS[C@H]12)c1csc(N)n1 [Example 33, 7-[(Z)-2-(2-aminothiazol-4-yl)-2-(ethoxyimino)acetamido]-3-(4-amino-1-methylfuro-[5,6,e]pyrimidinium-2-yl)thiomethyl-3-cephem-4-carboxylate] | 0.5 (≈ 0.846 µM) | ≤ 0.008 | 0.063 (≈ 0.107 µM) | 0.031 (≈ 0.0525 µM) | 0.5 (≈ 0.846 µM) | 0.25 (≈ 0.423 µM) | 0.063 (≈ 0.107 µM) | 8 (≈ 13.5 µM) | ≤ 0.008 | 0.5 (≈ 0.846 µM) | 0.5 (≈ 0.846 µM) | 32 (≈ 54.2 µM) | 0.13 (≈ 0.22 µM) | ≤ 0.008 | 0.25 (≈ 0.423 µM) | 0.063 (≈ 0.107 µM) | 0.13 (≈ 0.22 µM) | 0.25 (≈ 0.423 µM) | ≤ 0.008 | 16 (≈ 27.1 µM) | MIC [21]: 8 µg/mL (≈ 13.5 µM); MIC [22]: 0.5 µg/mL (≈ 0.846 µM); MIC [23]: 0.063 µg/mL (≈ 0.107 µM); MIC [24]: 8 µg/mL (≈ 13.5 µM); MIC [25]: 0.063 µg/mL (≈ 0.107 µM) |

From patent EP0584797A2, “Novel cephalosporin compounds and processes for the preparation thereof” (LUCKY LTD., priority 1992, dated 1994)
